For this assay, the target named is T1, human PD-1 / PD-L1-Ig binding on Jurkat cell line over-expressing human PD-1 (Jurkat-PD-1) (Homo sapiens, UniProt Q15116).
T1 construct: expressed in transfected cells; host or cells: Jurkat
The assay can be described thus: Jurkat-PD-1 Cell Binding High-Content Screening Assay (CBA). The format is cell-based. As to conditions: PE-labeled PD-L1-Ig 20 nM final. An outline of the steps: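 Jurkat-hPD-1 cells in DMEM with 10% fetal calf serum receive test compound and are held at 37° C for 2 h. PE-labeled PD-L1-Ig is added at 20 nM final and left for 1 hour. Cells are then fixed and Hoechst-stained, and binding is measured by imaging.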

The mark [1] stands for this setting: Jurkat-PD-1 cells, read-out: Jurkat HPD1_PDL1 IC50.

The record followed here is patent US20250163104A1, “MACROCYCLIC IMMUNOMODULATORS” (priority 2021, published 2025).

Read-outs that look alike come from different tables or passages of the source. *1 amine or outer side, *2 acyl side, *3 side chain or, on linkers, in order; H or OH if unused. Where a SMILES comes first, the peptide text is derived from it. Bridges are numbered along the chain shown (N, C = ends). [ ]: non-standard residue; d: D form. The star is where a group is joined. Ala(6-(2-MePh)pyridin-3-yl) = Cc1ccccc1-c1ccc(C[C@H](N)C(=O)O)cn1; Phe(3-CF3) = N[C@@H](Cc1cccc(C(F)(F)F)c1)C(=O)O; Ala(morpholin-4-yl) = N[C@@H](CN1CCOCC1)C(=O)O; Phe(4-COOH) = N[C@@H](Cc1ccc(C(=O)O)cc1)C(=O)O; X5 = O=C([C@H](Cc1ccc2ncccc2c1)N[*:1])[*:2]; Bip = N[C@@H](Cc1ccc(-c2ccccc2)cc1)C(=O)O; Phe(3-Me) = Cc1cccc(C[C@H](N)C(=O)O)c1; 4Pal = N[C@@H](Cc1ccncc1)C(=O)O; Cha = N[C@@H](CC1CCCCC1)C(=O)O; Cit = NC(=O)NCCC[C@H](N)C(=O)O; Carboxymethyl = O=C(O)C*; Orn = NCCC[C@H](N)C(=O)O; Pra = C#CC[C@H](N)C(=O)O; Dab = NCC[C@H](N)C(=O)O; Dap = NC[C@H](N)C(=O)O; Propargyl = C#CC*

By IC50 is commonly meant the point on the concentration scale where inhibition reaches its midpoint.

T1 sequence (Q15116 25-288): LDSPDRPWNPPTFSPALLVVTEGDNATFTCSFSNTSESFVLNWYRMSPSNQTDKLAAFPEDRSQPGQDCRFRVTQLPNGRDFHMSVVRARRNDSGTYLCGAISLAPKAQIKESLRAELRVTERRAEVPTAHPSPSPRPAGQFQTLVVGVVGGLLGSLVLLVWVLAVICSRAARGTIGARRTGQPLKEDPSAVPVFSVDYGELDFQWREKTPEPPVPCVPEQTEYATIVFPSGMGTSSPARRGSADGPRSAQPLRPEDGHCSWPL

Regarding `CC(C)C[C@H]1NC(=O)[C@H](CCCN)NC(=O)[C@H](CCCN)NC(=O)[C@H](Cc2ccc(-c3ccccc3)cc2)NC(=O)[C@H](Cc2ccc(C(=O)O)cc2)NC(=O)[C@H](Cc2cccc(C(F)(F)F)c2)NC(=O)[C@H](CC(N)=O)NC(=O)[C@H](Cc2ccc(C(=O)O)cc2)NC(=O)[C@H](CN2CCOCC2)NC(=O)CSC[C@@H](C(=O)N[C@@H](CCN)C(N)=O)NC(=O)[C@H](CCCN)NC(=O)[C@H](C(C)C)NC(=O)[C@H](CC2CCCCC2)NC(=O)[C@H](CCN)NC1=O` [Example 2728] ({CH2CO}-[Ala(morpholin-4-yl)][Phe(4-COOH)]N[Phe(3-CF3)][Phe(4-COOH)][Bip][Orn][Orn][dL][Dab][Cha]V[Orn]C[Dab]-NH2; thioether N-14), the IC50 under setting [1] is 964 nM.
Still for that read-out and setting: the value for `CC(C)C[C@H]1NC(=O)[C@H](CCCN)NC(=O)[C@H](CCC(=O)O)NC(=O)[C@H](Cc2ccc(-c3ccccc3)cc2)NC(=O)[C@H](C(C)C)NC(=O)[C@H](Cc2c[nH]c3ccccc23)NC(=O)[C@H](CC(=O)O)NC(=O)[C@H](Cc2ccc3ncccc3c2)NC(=O)[C@H](CN)NC(=O)CSC[C@@H](C(=O)N[C@@H](C)C(N)=O)NC(=O)[C@H]([C@@H](C)O)NC(=O)[C@H](C(C)C)NC(=O)[C@H](CC2CCCCC2)NC(=O)[C@H](CCN)NC1=O` [Compound 2177] ({CH2CO}-[Dap][X5]DWV[Bip]E[Orn][dL][Dab][Cha]VTCA-NH2; thioether N-14) was 128 nM.
The same measure, in the same setting: the value for `CC(C)C[C@@H]1NC(=O)[C@H](CCN)NC(=O)[C@@H](CC(C)C)NC(=O)[C@H](CCCCN)NC(=O)[C@H](CCCNC(N)=O)NC(=O)[C@H](Cc2ccc(-c3ccccc3)cc2)NC(=O)[C@H](C(C)C)NC(=O)[C@H](Cc2c[nH]c3ccccc23)NC(=O)[C@H](CC(=O)O)NC(=O)[C@H](Cc2ccc(O)cc2)NC(=O)[C@H](CC(N)=O)NC(=O)CSC[C@@H](C(=O)N[C@@H](C)C(N)=O)NC(=O)[C@H](CO)NC(=O)[C@H](C(C)C)NC1=O` [Compound 1110] ({CH2CO}-NYDWV[Bip][Cit]K[dL][Dab]LVSCA-NH2; thioether N-14) was 35.6 nM; that for `C#CCOc1ccc(C[C@@H]2NC(=O)[C@@H](CC(C)C)NC(=O)[C@H](CCCN)NC(=O)[C@H](C(C)C)NC(=O)[C@H](Cc3ccc(-c4ccccc4)cc3)NC(=O)[C@H](C(C)C)NC(=O)[C@H](Cc3cccc(C)c3)NC(=O)[C@H](CC(=O)O)NC(=O)[C@H](Cc3ccc(C(=O)O)cc3)NC(=O)[C@H](CN)NC(=O)CSC[C@@H](C(=O)N[C@@H](CCN)C(N)=O)NC(=O)[C@H]([C@@H](C)O)NC(=O)[C@H](C(C)C)NC(=O)[C@H](CC3CCCCC3)NC2=O)cc1` [Compound 2026] ({CH2CO}-[Dap][Phe(4-COOH)]D[Phe(3-Me)]V[Bip]V[Orn][dL]Y(Propargyl)[Cha]VTC[Dab]-NH2; thioether N-14) was 133 nM.
Same read-out and setting: the value for `Cc1ccccc1-c1ccc(C[C@@H]2NC(=O)[C@H](CN)NC(=O)CSC[C@@H](C(=O)N[C@@H](C)C(N)=O)NC(=O)[C@H]([C@@H](C)O)NC(=O)[C@H](C(C)C)NC(=O)[C@H](CC3CCCCC3)NC(=O)[C@H](CCN)NC(=O)[C@@H](CC(C)C)NC(=O)[C@H](CCCN)NC(=O)[C@H](CCCNC(N)=O)NC(=O)[C@H](Cc3ccc(-c4ccccc4)cc3)NC(=O)[C@H](C(C)C)NC(=O)[C@H](Cc3c[nH]c4ccccc34)NC(=O)[C@H](CC(=O)O)NC2=O)cn1` [Compound 2135] ({CH2CO}-[Dap][Ala(6-(2-MePh)pyridin-3-yl)]DWV[Bip][Cit][Orn][dL][Dab][Cha]VTCA-NH2; thioether N-14) was 131 nM.
For the molecule `CC(C)C[C@@H]1NC(=O)[C@H](CCCCN)NC(=O)[C@@H](CC(C)C)NC(=O)[C@H](CCCN)NC(=O)[C@H](CCCNC(=N)N)NC(=O)[C@H](Cc2ccc(-c3ccccc3)cc2)NC(=O)[C@H](C(C)C)NC(=O)[C@H](Cc2c[nH]c3ccccc23)NC(=O)[C@H](CC(=O)O)NC(=O)[C@H](Cc2ccc(O)cc2)NC(=O)[C@H](CC(N)=O)NC(=O)CSC[C@@H](C(=O)N[C@@H](C)C(N)=O)NC(=O)[C@H]([C@@H](C)O)NC(=O)[C@H](C(C)C)NC1=O` [Compound 1030] ({CH2CO}-NYDWV[Bip]R[Orn][dL]KLVTCA-NH2; thioether N-14), the IC50 under setting [1] came out at 10.8 nM.
On the same count and under the same terms, the value for `CCC[C@@H]1NC(=O)[C@H](Cc2c[nH]c3ccccc23)NC(=O)[C@H](CC(=O)O)NC(=O)[C@H](Cc2ccc(OCC(=O)O)cc2)NC(=O)[C@H](CN)NC(=O)CSC[C@@H](C(=O)N[C@@H](C)C(N)=O)NC(=O)[C@H]([C@@H](C)O)NC(=O)[C@H](C(C)C)NC(=O)[C@H](CC2CCCCC2)NC(=O)[C@H](CCN)NC(=O)[C@@H](CC(C)C)NC(=O)[C@H](CCCN)NC(=O)[C@H]([C@@H](C)CC)NC(=O)[C@H](Cc2ccc(-c3ccccc3)cc2)NC1=O` [Compound 1727] was 9.1 nM; that for `C#CC[C@H](NC(=O)CNC(=O)[C@@H]1CSCC(=O)N[C@@H](CN)C(=O)N[C@@H](Cc2ccc(OCC(=O)O)cc2)C(=O)N[C@@H](CC(=O)O)C(=O)N[C@@H](Cc2cccc(C)c2)C(=O)N[C@@H](C(C)C)C(=O)N[C@@H](Cc2ccc(-c3ccccc3)cc2)C(=O)N[C@@H](CCCNC(N)=O)C(=O)N[C@@H](CCCN)C(=O)N[C@H](CC(C)C)C(=O)N[C@@H](CCN)C(=O)N[C@@H](CC2CCCCC2)C(=O)N[C@@H](C(C)C)C(=O)N[C@@H]([C@@H](C)O)C(=O)N1)C(=O)O` [Compound 2263] ({CH2CO}-[Dap]Y(Carboxymethyl)D[Phe(3-Me)]V[Bip][Cit][Orn][dL][Dab][Cha]VTCG[Pra]-OH; thioether N-14) was 12.1 nM.
Same read-out and setting: the value for `Cc1cccc(C[C@@H]2NC(=O)[C@H](CC(=O)O)NC(=O)[C@H](Cc3ccc(C(=O)O)cc3)NC(=O)[C@H](Cc3ccncc3)NC(=O)CSC[C@@H](C(N)=O)NC(=O)[C@H](CC(=O)O)NC(=O)[C@H](C(C)C)NC(=O)[C@H](CC3CCCCC3)NC(=O)[C@H](CCN)NC(=O)[C@@H](CC(C)C)NC(=O)[C@H](CCCN)NC(=O)[C@H](CCCNC(N)=O)NC(=O)[C@H](Cc3ccc(-c4ccccc4)cc3)NC(=O)[C@H](C(C)C)NC2=O)c1` [Compound 2270] ({CH2CO}-[4Pal][Phe(4-COOH)]D[Phe(3-Me)]V[Bip][Cit][Orn][dL][Dab][Cha]VDC-NH2; thioether N-14) was 24.5 nM.
Take `CC(C)C[C@@H]1NC(=O)[C@H](Cc2c[nH]c3ccccc23)NC(=O)[C@H](CC(=O)O)NC(=O)[C@H](Cc2ccncc2)NC(=O)[C@H](CN)NC(=O)CSC[C@@H](C(=O)NCC(N)=O)NC(=O)[C@H](CO)NC(=O)[C@H](C(C)C)NC(=O)[C@H](CC(C)C)NC(=O)[C@H](CC(N)=O)NC(=O)[C@@H](CC(C)C)NC(=O)[C@H](CCN)NC(=O)[C@H](C(C)C)NC(=O)[C@H](Cc2ccc(-c3ccccc3)cc2)NC1=O` [Compound 1281] ({CH2CO}-[Dap][4Pal]DWL[Bip]V[Dab][dL]NLVSCG-NH2; thioether N-14): under setting [1], the IC50 was 8.9 nM.
Take `CC(C)C[C@H]1NC(=O)[C@H](CCCN)NC(=O)[C@H](C(C)C)NC(=O)[C@H](Cc2ccc(-c3ccccc3)cc2)NC(=O)[C@H](C(C)C)NC(=O)[C@H](Cc2c[nH]c3ccccc23)NC(=O)[C@H](CC(=O)O)NC(=O)[C@H](Cc2ccc(OCC(=O)O)cc2)NC(=O)[C@H](CCO)NC(=O)CSC[C@@H](C(=O)N[C@@H](C)C(N)=O)NC(=O)[C@H](C(C)O)NC(=O)[C@H](C(C)C)NC(=O)[C@H](CC2CCCCC2)NC(=O)[C@H](CCN)NC1=O` (some centres unmarked) [Compound 2514]: the IC50 under setting [1] came out at 5.4 nM.
Where the note is “Jurkat HPD1_PDL1 IC50, Jurkat-PD-1 cells”, `CC(C)C[C@@H]1NC(=O)[C@H](Cc2c[nH]c3ccccc23)NC(=O)[C@H](CC(=O)O)NC(=O)[C@H](Cc2ccc(OCC(=O)O)cc2)NC(=O)[C@H](CN)NC(=O)CSC[C@@H](C(=O)NCC(N)=O)NC(=O)[C@H](CO)NC(=O)[C@H](C(C)C)NC(=O)[C@H](CC2CCCCC2)NC(=O)[C@H](CC(N)=O)NC(=O)[C@@H](CC(C)C)NC(=O)[C@H](CN)NC(=O)[C@H](C(C)C)NC(=O)[C@H](Cc2ccc(-c3ccccc3)cc2)NC1=O` [Compound 1394] ({CH2CO}-[Dap]Y(Carboxymethyl)DWL[Bip]V[Dap][dL]N[Cha]VSCG-NH2; thioether N-14) displayed an IC50 of 7.6 nM.
Consider `Cc1cccc(C[C@@H]2NC(=O)[C@H](CC(=O)O)NC(=O)[C@H](Cc3ccc(OCC(=O)O)cc3)NC(=O)[C@H]([C@@H](C)O)NC(=O)CSC[C@@H](C(N)=O)NC(=O)[C@H](CCCN)NC(=O)[C@H](C(C)C)NC(=O)[C@H](CC3CCCCC3)NC(=O)[C@H](CCN)NC(=O)[C@@H](CC(C)C)NC(=O)[C@H](CCCN)NC(=O)[C@H](Cc3ccc(OCC(=O)O)cc3)NC(=O)[C@H](Cc3ccc(-c4ccccc4)cc3)NC(=O)[C@H](Cc3ccc(OCC(=O)O)cc3)NC2=O)c1` [Compound 1802] ({CH2CO}-TY(Carboxymethyl)D[Phe(3-Me)]Y(Carboxymethyl)[Bip]Y(Carboxymethyl)[Orn][dL][Dab][Cha]V[Orn]C-NH2; thioether N-14), for which the IC50 under setting [1] is 9.5 nM.
For the molecule `CC[C@H](C)[C@@H]1NC(=O)[C@H](Cc2ccc(-c3ccccc3)cc2)NC(=O)[C@H](C(C)C)NC(=O)[C@H](Cc2c[nH]c3ccccc23)NC(=O)[C@H](CC(=O)O)NC(=O)[C@H](Cc2ccc(O)cc2)NC(=O)[C@H](Cc2ccc(OCC(=O)O)cc2)NC(=O)CSC[C@@H](C(=O)N[C@@H](C)C(N)=O)NC(=O)[C@H]([C@@H](C)O)NC(=O)[C@H](C(C)C)NC(=O)[C@H](CC(C)C)NC(=O)[C@H](CCCNC(=N)N)NC(=O)[C@@H](CC(C)C)NC(=O)[C@H](CCCN)NC1=O` [Compound 1142] ({CH2CO}-Y(Carboxymethyl)YDWV[Bip]I[Orn][dL]RLVTCA-NH2; thioether N-14), the IC50 under setting [1] is 19.6 nM.
